Assay results from ChEMBL document CHEMBL2396528, “Synthesis of new conjugated coumarin-benzimidazole hybrids and their anticancer activity” (2013).
Calls of active or inactive are those of the source. The calls are words filed in the database; no cut-off is given here.

What was measured:
Assay type in all cases: functional
[1] = tested on: U-251; test: Cytotoxicity against human U251 cells assessed as growth inhibition at 10 uM after 48 hrs by SRB assay relative to control; conditions: U-251, 48 h, read-out: GI
[2] = tested on: SR; test: Cytotoxicity against human SR cells assessed as growth inhibition at 10 uM after 48 hrs by SRB assay relative to control; conditions: read-out: GI
[3] = Cytotoxicity against human NCI-ADR-RES cells assessed as growth inhibition at 10 uM after 48 hrs by SRB assay relative to control; conditions: read-out: GI
[4] = tested on: BT-549; test: Cytotoxicity against human BT549 cells assessed as growth inhibition at 10 uM after 48 hrs by SRB assay relative to control; conditions: BT-549, 48 h, read-out: GI
[5] = tested on: UACC-62; test: Cytotoxicity against human UACC62 cells assessed as growth inhibition at 10 uM after 48 hrs by SRB assay relative to control; conditions: UACC-62, 48 h, read-out: GI
[6] = tested on: SNB-75; test: Cytotoxicity against human SNB75 cells assessed as growth inhibition at 10 uM after 48 hrs by SRB assay relative to control; conditions: SNB-75, 48 h, read-out: GI
[7] = tested on: UO-31; test: Cytotoxicity against human UO31 cells assessed as growth inhibition at 10 uM after 48 hrs by SRB assay relative to control; conditions: UO-31, 48 h, read-out: GI
[8] = tested on: SK-MEL-2; test: Cytotoxicity against human SK-MEL-2 cells assessed as growth inhibition at 10 uM after 48 hrs by SRB assay relative to control; conditions: SK-MEL-2, 48 h, read-out: GI
[9] = tested on: PC-3; test: Cytotoxicity against human PC3 cells assessed as growth inhibition at 10 uM after 48 hrs by SRB assay relative to control; conditions: PC-3, 48 h, read-out: GI
[10] = tested on: IGROV-1; test: Cytotoxicity against human IGROV1 cells assessed as growth inhibition at 10 uM after 48 hrs by SRB assay relative to control; conditions: IGROV-1, 48 h, read-out: GI
[11] = tested on: OVCAR-3; test: Cytotoxicity against human OVCAR3 cells assessed as growth inhibition at 10 uM after 48 hrs by SRB assay relative to control; conditions: OVCAR-3, 48 h, read-out: GI
[12] = tested on: NCI-H322M; test: Cytotoxicity against human NCI-H322M cells assessed as growth inhibition at 10 uM after 48 hrs by SRB assay relative to control; conditions: read-out: GI
[13] = tested on: MCF7; test: Cytotoxicity against human MCF7 cells assessed as growth inhibition at 10 uM after 48 hrs by SRB assay relative to control; conditions: MCF7, 48 h, read-out: GI
[14] = tested on: HOP-62; test: Cytotoxicity against human HOP62 cells assessed as growth inhibition at 10 uM after 48 hrs by SRB assay relative to control; conditions: HOP-62, 48 h, read-out: GI
[15] = tested on: LOX IMVI; test: Cytotoxicity against human LOXIMVI cells assessed as growth inhibition at 10 uM after 48 hrs by SRB assay relative to control; conditions: read-out: GI
[16] = tested on: SF-539; test: Cytotoxicity against human SF539 cells assessed as growth inhibition at 10 uM after 48 hrs by SRB assay relative to control
[17] = tested on: SK-MEL-5; test: Cytotoxicity against human SK-MEL-5 cells assessed as growth inhibition at 10 uM after 48 hrs by SRB assay relative to control; conditions: SK-MEL-5, 48 h, read-out: GI
[18] = tested on: SW-620; test: Cytotoxicity against human SW620 cells assessed as growth inhibition at 10 uM after 48 hrs by SRB assay relative to control; conditions: SW-620, 48 h, read-out: GI
[19] = tested on: M14; test: Cytotoxicity against human M14 cells assessed as growth inhibition at 10 uM after 48 hrs by SRB assay relative to control; conditions: M14, 48 h, read-out: GI
[20] = tested on: OVCAR-4; test: Cytotoxicity against human OVCAR4 cells assessed as growth inhibition at 10 uM after 48 hrs by SRB assay relative to control; conditions: OVCAR-4, 48 h, read-out: GI
[21] = tested on: HCT-116; test: Cytotoxicity against human HCT116 cells assessed as growth inhibition at 10 uM after 48 hrs by SRB assay relative to control; conditions: HCT-116, 48 h, read-out: GI
[22] = tested on: SF-268; test: Cytotoxicity against human SF268 cells assessed as growth inhibition at 10 uM after 48 hrs by SRB assay relative to control; conditions: SF-268, 48 h, read-out: GI
[23] = tested on: MDA-MB-468; test: Cytotoxicity against human MDA-MB-468 cells assessed as growth inhibition at 10 uM after 48 hrs by SRB assay relative to control; conditions: MDA-MB-468, 48 h, read-out: GI
[24] = tested on: OVCAR-5; test: Cytotoxicity against human OVCAR5 cells assessed as growth inhibition at 10 uM after 48 hrs by SRB assay relative to control; conditions: OVCAR-5, 48 h, read-out: GI
[25] = tested on: MDA-MB-231; test: Cytotoxicity against human MDA-MB-231 cells assessed as growth inhibition at 10 uM after 48 hrs by SRB assay relative to control; conditions: MDA-MB-231, 48 h, read-out: GI
[26] = tested on: Malme-3M; test: Cytotoxicity against human MALME-3M cells assessed as growth inhibition at 10 uM after 48 hrs by SRB assay relative to control; conditions: read-out: GI
[27] = tested on: CCRF-CEM; test: Cytotoxicity against human CCRF-CEM cells assessed as growth inhibition at 10 uM after 48 hrs by SRB assay relative to control; conditions: read-out: GI
[28] = tested on: A498; test: Cytotoxicity against human A498 cells assessed as growth inhibition at 10 uM after 48 hrs by SRB assay relative to control
[29] = tested on: SK-OV-3; test: Cytotoxicity against human SKOV3 cells assessed as growth inhibition at 10 uM after 48 hrs by SRB assay relative to control; conditions: SK-OV-3, 48 h, read-out: GI
[30] = tested on: SF-295; test: Cytotoxicity against human SF295 cells assessed as growth inhibition at 10 uM after 48 hrs by SRB assay relative to control; conditions: SF-295, 48 h, read-out: GI
[31] = tested on: HOP-92; test: Cytotoxicity against human HOP92 cells assessed as growth inhibition at 10 uM after 48 hrs by SRB assay relative to control; conditions: HOP-92, 48 h, read-out: GI
[32] = tested on: UACC-257; test: Cytotoxicity against human UACC257 cells assessed as growth inhibition at 10 uM after 48 hrs by SRB assay relative to control; conditions: UACC-257, 48 h, read-out: GI
[33] = tested on: K562; test: Cytotoxicity against human K562 cells assessed as growth inhibition at 10 uM after 48 hrs by SRB assay relative to control; conditions: K562, 48 h, read-out: GI
[34] = tested on: DU-145; test: Cytotoxicity against human DU145 cells assessed as growth inhibition at 10 uM after 48 hrs by SRB assay relative to control; conditions: DU-145, 48 h, read-out: GI
[35] = tested on: RPMI-8226; test: Cytotoxicity against human RPMI8226 cells assessed as growth inhibition at 10 uM after 48 hrs by SRB assay relative to control; conditions: RPMI-8226, 48 h, read-out: GI

## NCCNc1ccc2cc(-c3nc4ccccc4[nH]3)c(=O)oc2c1
[1]
  inhibition of growth at 10 µM: < 20%
[2]
  inhibition of growth at 10 µM: < 20%
[3]
  inhibition of growth at 10 µM: < 20%
[4]
  inhibition of growth at 10 µM: < 20%
[5]
  inhibition of growth at 10 µM: < 20%
[6]
  inhibition of growth at 10 µM: < 20%
[7]
  inhibition of growth at 10 µM: < 20%
[8]
  inhibition of growth at 10 µM: < 20%
[9]
  inhibition of growth at 10 µM: 20.3%
[10]
  inhibition of growth at 10 µM: < 20%
[11]
  inhibition of growth at 10 µM: < 20%
[12]
  inhibition of growth at 10 µM: < 20%
[13]
  inhibition of growth at 10 µM: < 20%
[14]
  inhibition of growth at 10 µM: < 20%
[15]
  inhibition of growth at 10 µM: < 20%
[16]; SF-539, 48 h, read-out: GI
  inhibition of growth at 10 µM: < 20%
[17]
  inhibition of growth at 10 µM: < 20%
[18]
  inhibition of growth at 10 µM: < 20%
[19]
  inhibition of growth at 10 µM: < 20%
[20]
  inhibition of growth at 10 µM: < 20%
[21]
  inhibition of growth at 10 µM: < 20%
[22]
  inhibition of growth at 10 µM: < 20%
[23]
  inhibition of growth at 10 µM: < 20%
[24]
  inhibition of growth at 10 µM: < 20%
[25]
  inhibition of growth at 10 µM: 34%
[26]
  inhibition of growth at 10 µM: < 20%
[27]
  inhibition of growth at 10 µM: < 20%
[28]; A498, 48 h, read-out: GI
  inhibition of growth at 10 µM: < 20%
[29]
  inhibition of growth at 10 µM: < 20%
[30]
  inhibition of growth at 10 µM: < 20%
[31]
  inhibition of growth at 10 µM: < 20%
[32]
  inhibition of growth at 10 µM: < 20%
[33]
  inhibition of growth at 10 µM: < 20%
[34]
  inhibition of growth at 10 µM: < 20%

## O=c1[nH]cc(F)c(=O)[nH]1 [FLUOROURACIL]
[1]
  inhibition of growth at 10 µM: 50.3%
[2]
  inhibition of growth at 10 µM: 24.8%
[3]
  inhibition of growth at 10 µM: 47.6%
[4]
  inhibition of growth at 10 µM: 37.8%
[5]
  inhibition of growth at 10 µM: 39.7%
[6]
  inhibition of growth at 10 µM: 65.9%
[7]
  inhibition of growth at 10 µM: 41.3%
[8]
  inhibition of growth at 10 µM: 95.5%
[9]
  inhibition of growth at 10 µM: 58.2%
[10]
  inhibition of growth at 10 µM: 51.2%
[11]
  inhibition of growth at 10 µM: 47.4%
[12]
  inhibition of growth at 10 µM: 59.5%
[35]
  inhibition of growth at 10 µM: 41.4%
[13]
  inhibition of growth at 10 µM: 11.5%
[14]
  inhibition of growth at 10 µM: 47.8%
[15]
  inhibition of growth at 10 µM: 30.4%
[16]
  growth inhibition (GI): Active
[18]
  inhibition of growth at 10 µM: < 20%
[20]
  inhibition of growth at 10 µM: 59.4%
[21]
  inhibition of growth at 10 µM: 17.8%
[22]
  inhibition of growth at 10 µM: 59%
[24]
  inhibition of growth at 10 µM: 44.3%
[25]
  inhibition of growth at 10 µM: 78.1%
[26]
  inhibition of growth at 10 µM: 58.2%
[27]
  inhibition of growth at 10 µM: 57.1%
[28]
  growth inhibition (GI): Active
[29]
  inhibition of growth at 10 µM: 77.5%
[30]
  inhibition of growth at 10 µM: 69%
[31]
  inhibition of growth at 10 µM: 50.6%
[32]
  inhibition of growth at 10 µM: 33.7%
[33]
  inhibition of growth at 10 µM: 42.3%
[34]
  inhibition of growth at 10 µM: 35.5%
